16 molecules from ChEMBL document CHEMBL1144636, “Quinazolinone fungal efflux pump inhibitors. Part 3: (N-methyl)piperazine variants and pharmacokinetic optimization” (Bioorg Med Chem Lett, 2007) can be followed below.

For one data set, the system named is Nakaseomyces glabratus. As to the kind of experiment: In vitro potentiation of fluconazole antifungal activity in Candida glabrata YEM19 assessed as 8 fold reduction in fluconazole MIC. It counts as functional.
Conditions: not given
For `COc1ccc(N(C(=O)Nc2ccc(F)cc2)C(C)c2nc3ccccc3c(=O)n2N2CCN(C(=O)N3CCCC3)CC2)c(OC)c1` (stereo unspecified), the Activity is below 0.03 µg/mL.
Still for that read-out and setting: for `COC(=O)N(C)[C@@H](C)C(=O)N1CCN(n2c(C(C)N(C(=O)Nc3ccc(F)cc3)c3ccc(OC)cc3OC)nc3ccccc3c2=O)CC1` (stereo partly specified) the value was 0.5 µg/mL; for `COC(=O)N[C@@H](C)C(=O)N1CCN(n2c(C(C)N(C(=O)Nc3ccc(F)cc3)c3ccc(OC)cc3OC)nc3ccccc3c2=O)CC1` (stereo partly specified), 0.25 µg/mL.
On to `COC(=O)N[C@@H](CO)C(=O)N1CCN(n2c(C(C)N(C(=O)Nc3ccc(F)cc3)c3ccc(OC)cc3OC)nc3ccccc3c2=O)CC1` (stereo partly specified), for which the Activity stood at 8 µg/mL.
The same measure, in the same setting: to `COC(=O)N[C@H](C(=O)N1CCN(n2c(C(C)N(C(=O)Nc3ccc(F)cc3)c3ccc(OC)cc3OC)nc3ccccc3c2=O)CC1)[C@H](C)O` (stereo partly specified) belongs 2 µg/mL.
Same read-out and setting: for `COc1ccc(N(C(=O)Nc2ccc(F)cc2)C(C)c2nc3ccccc3c(=O)n2N2CCN(C[C@@H]3CCCN3)CC2)c(OC)c1` (stereo partly specified) the value was 2 µg/mL.
For the molecule `COC(=O)N[C@H]1CCN(C(=O)N2CCN(n3c(C(C)N(C(=O)Nc4ccc(F)cc4)c4ccc(OC)cc4OC)nc4ccccc4c3=O)CC2)C1` (stereo partly specified), the Activity came out at 0.25 µg/mL.
With `CCOC(=O)N1CCN(n2c(C(C)N(C(=O)Nc3ccc(F)cc3)c3ccc(OC)cc3OC)nc3ccccc3c2=O)CC1` (stereo unspecified), the Activity stood at 0.5 µg/mL.
For `CCNC(=O)N1CCN(n2c(C(C)N(C(=O)Nc3ccc(F)cc3)c3ccc(OC)cc3OC)nc3ccccc3c2=O)CC1` (stereo unspecified), the Activity turned out to be 1 µg/mL.
Consider `COc1ccc(N(C(=O)Nc2ccc(F)cc2)C(C)c2nc3ccccc3c(=O)n2N2CCN(C(N)=O)CC2)c(OC)c1` (stereo unspecified), for which the Activity came to 16 µg/mL.
For the molecule `COc1ccc(N(C(=O)Nc2ccc(F)cc2)C(C)c2nc3ccccc3c(=O)n2N2CCN(C(=O)[C@@H]3CCCN3C3CC3)CC2)c(OC)c1` (stereo partly specified), the Activity stood at 0.25 µg/mL.
Regarding `COc1ccc(N(C(=O)Nc2ccc(F)cc2)C(C)c2nc3ccccc3c(=O)n2N2CCN(C(=O)[C@H](C)N3CCCC3)CC2)c(OC)c1` (stereo partly specified), the Activity was determined as 0.25 µg/mL.
For `COc1ccc(N(C(=O)Nc2ccc(F)cc2)C(C)c2nc3ccccc3c(=O)n2N2CCN(C(=O)CN3CCCC3)CC2)c(OC)c1` (stereo unspecified), the Activity stood at 1 µg/mL.
For the molecule `COc1ccc(N(C(=O)Nc2ccc(F)cc2)C(C)c2nc3ccccc3c(=O)n2N2CCN(C(=O)C[C@@H]3CCCN3)CC2)c(OC)c1` (stereo partly specified), the Activity came to 0.5 µg/mL.
Take `COC(=O)N[C@H](C(=O)N1CCN(n2c(C(C)N(C(=O)Nc3ccc(F)cc3)c3ccc(OC)cc3OC)nc3ccccc3c2=O)CC1)C(C)C` (stereo partly specified): the Activity was determined as 2 µg/mL.
For `COc1ccc(N(C(=O)Nc2ccc(F)cc2)C(C)c2nc3ccccc3c(=O)n2N2CCN(C(=O)[C@H](C)N)CC2)c(OC)c1` (stereo partly specified), the Activity was found to be 4 µg/mL.

In a further data set the test system is Serum. As to the kind of experiment: Protein binding in Sprague-Dawley rat serum. It counts as ADME, cell-free.
Conditions: not given
On the set-up: concentration or dose not given beside the values.
As to `COC(=O)N[C@@H](C)C(=O)N1CCN(n2c(C(C)N(C(=O)Nc3ccc(F)cc3)c3ccc(OC)cc3OC)nc3ccccc3c2=O)CC1` (stereo partly specified), the Activity is given as 82%.

Test system in the next data set: not listed separately
The experiment in a line: Stability in Sprague-Dawley rat hepatocyte after 24 hrs. It counts as ADME, cell-based. To be noted: hepatocytes, read-out: Stability.
With `COc1ccc(N(C(=O)Nc2ccc(F)cc2)C(C)c2nc3ccccc3c(=O)n2N2CCN(C(=O)N3CCCC3)CC2)c(OC)c1` (stereo unspecified), the remaining at 24 h was found to be 0%.
In the case of `COC(=O)N[C@@H](C)C(=O)N1CCN(n2c(C(C)N(C(=O)Nc3ccc(F)cc3)c3ccc(OC)cc3OC)nc3ccccc3c2=O)CC1` (stereo partly specified), the remaining at 24 h stood at 39%.
Still for that read-out and setting: to `COC(=O)N[C@H]1CCN(C(=O)N2CCN(n3c(C(C)N(C(=O)Nc4ccc(F)cc4)c4ccc(OC)cc4OC)nc4ccccc4c3=O)CC2)C1` (stereo partly specified) belongs 23%.

In the next data set the test system is Candida albicans. The experiment in a line: In vitro potentiation of fluconazole antifungal activity in Candida albicans YEM15 assessed as 8 fold reduction in fluconazole MIC. It counts as functional.
Conditions: not given
On to `COc1ccc(N(C(=O)Nc2ccc(F)cc2)C(C)c2nc3ccccc3c(=O)n2N2CCN(C(=O)N3CCCC3)CC2)c(OC)c1` (stereo unspecified), for which the Activity came out at 0.0625 µg/mL.
The same measure, in the same setting: to `COC(=O)N(C)[C@@H](C)C(=O)N1CCN(n2c(C(C)N(C(=O)Nc3ccc(F)cc3)c3ccc(OC)cc3OC)nc3ccccc3c2=O)CC1` (stereo partly specified) belongs 0.5 µg/mL; to `COC(=O)N[C@@H](C)C(=O)N1CCN(n2c(C(C)N(C(=O)Nc3ccc(F)cc3)c3ccc(OC)cc3OC)nc3ccccc3c2=O)CC1` (stereo partly specified), 2 µg/mL.
On the same count and under the same terms, for `COC(=O)N[C@@H](CO)C(=O)N1CCN(n2c(C(C)N(C(=O)Nc3ccc(F)cc3)c3ccc(OC)cc3OC)nc3ccccc3c2=O)CC1` (stereo partly specified) the value was 32 µg/mL; for `COC(=O)N[C@H](C(=O)N1CCN(n2c(C(C)N(C(=O)Nc3ccc(F)cc3)c3ccc(OC)cc3OC)nc3ccccc3c2=O)CC1)[C@H](C)O` (stereo partly specified), 2 µg/mL; for `COc1ccc(N(C(=O)Nc2ccc(F)cc2)C(C)c2nc3ccccc3c(=O)n2N2CCN(C[C@@H]3CCCN3)CC2)c(OC)c1` (stereo partly specified), 32 µg/mL.
As to `COC(=O)N[C@H]1CCN(C(=O)N2CCN(n3c(C(C)N(C(=O)Nc4ccc(F)cc4)c4ccc(OC)cc4OC)nc4ccccc4c3=O)CC2)C1` (stereo partly specified), the Activity came to 4 µg/mL.
For `CCOC(=O)N1CCN(n2c(C(C)N(C(=O)Nc3ccc(F)cc3)c3ccc(OC)cc3OC)nc3ccccc3c2=O)CC1` (stereo unspecified), the Activity turned out to be 0.25 µg/mL.
On the same count and under the same terms, for `CCNC(=O)N1CCN(n2c(C(C)N(C(=O)Nc3ccc(F)cc3)c3ccc(OC)cc3OC)nc3ccccc3c2=O)CC1` (stereo unspecified) the value was 1 µg/mL; for `COc1ccc(N(C(=O)Nc2ccc(F)cc2)C(C)c2nc3ccccc3c(=O)n2N2CCN(C(N)=O)CC2)c(OC)c1` (stereo unspecified), 8 µg/mL.
The same measure, in the same setting: for `COc1ccc(N(C(=O)Nc2ccc(F)cc2)C(C)c2nc3ccccc3c(=O)n2N2CCN(C(=O)[C@@H]3CCCN3C3CC3)CC2)c(OC)c1` (stereo partly specified) the value was 1 µg/mL.
As for `COc1ccc(N(C(=O)Nc2ccc(F)cc2)C(C)c2nc3ccccc3c(=O)n2N2CCN(C(=O)[C@H](C)N3CCCC3)CC2)c(OC)c1` (stereo partly specified), the Activity stood at 8 µg/mL.
In the case of `COc1ccc(N(C(=O)Nc2ccc(F)cc2)C(C)c2nc3ccccc3c(=O)n2N2CCN(C(=O)CN3CCCC3)CC2)c(OC)c1` (stereo unspecified), the Activity was 4 µg/mL.
`COc1ccc(N(C(=O)Nc2ccc(F)cc2)C(C)c2nc3ccccc3c(=O)n2N2CCN(C(=O)C[C@@H]3CCCN3)CC2)c(OC)c1` (stereo partly specified): the Activity was above 32 µg/mL.
Take `COC(=O)N[C@H](C(=O)N1CCN(n2c(C(C)N(C(=O)Nc3ccc(F)cc3)c3ccc(OC)cc3OC)nc3ccccc3c2=O)CC1)C(C)C` (stereo partly specified): the Activity came to 1 µg/mL.
Take `COc1ccc(N(C(=O)Nc2ccc(F)cc2)C(C)c2nc3ccccc3c(=O)n2N2CCN(C(=O)[C@H](C)N)CC2)c(OC)c1` (stereo partly specified): the Activity is above 32 µg/mL.
